According to patent US10633386B2, “BET protein degraders” (THE REGENTS OF THE UNIVERSITY OF MICHIGAN, priority 2016, dated 2020):
Blank lines part the entries; values can stand above or below the molecule they belong to.

Tests used:
[1] = tested on: TNBC cell lines; assay: Combination apoptosis induction (immunoblotting and/or Annexin-PI staining); assay type: cell-based; details: for effect on Cpd. No. 4-induced apoptosis: MDA-MB-468, 250 nM with Cpd. No. 4 50 nM (FIG. 14)
Method: Immunoblotting and/or Annexin-PI staining confirmed that BM-1197 (250 nM), ABT-263 (250 nM), and A-1155463 (250 nM) potentiated Cpd. No. 4-induced apoptosis (50 nM) in MDA-MB-468 (FIG. 14) and other TNBC cell lines (data not shown). Synergistic induction of apoptosis by Cpd. […] No. 4-induced apoptosis in these cell lines. […] A with either BM-1197 (FIGS. 15 and 16) or ABT-263 (data not shown). […] No. 4 and BM-1197 was also detected in additional TNBC cell lines responsive to Cpd. No. 4-induced apoptosis (BT-20 and MDA-MB-157) (data not shown), further supporting that BCL-XL inhibitors potentiate Cpd. No. 4-induced apoptosis in TNBC.

[2] = tested on: TNBC cell lines; assay: Combination growth inhibition with BCL-2/BCL-XL inhibitors (Bliss independence model); assay type: cell-based; details: 6 of the 7 TNBC cell lines tested (data not shown)
Method: MCL1 and BCL-XL are important but independent determinants of cell survival in TNBC (Goodwin et al., Cell Death Differ 22:2098-106 (2015); Xiao et al., Mol. Cancer Ther. 14:1837-47 (2015); Petrocca et al., Cancer Cell 24:182-96 (2013)). A panel of TNBC cell lines were treated with Cpd. No. 4 in combination with BCL-2 and/or BCL-XL inhibitors, and the excess growth inhibition was computed over the Bliss independence model for each combination pairs (Berenbaum, Adv. Cancer Res., 35:269-335 (1981)). ABT-263 (Tse et al., Cancer Res. 68:3421-8 (2008)) and BM-1197 (Bai et al., PLoS One 2014; 9(6):e99404 doi 10.1371/journal.pone.0099404) were selected as dual BCL-2/BCL-XL inhibitors, […] as a selective BCL-XL inhibitor (Tao et al., ASC Med. Chem. Lett. 5:1088-93 (2014)) and ABT-199 as a selective BCL-2 inhibitor (Souers et al., Nat. Med. 19:202-8 (2013)).

[3] = tested on: MDA-MB-231 xenograft; assay: In vivo antitumor activity in MDA-MB-231 xenograft model (Example 25); design: species or system SCID mice
Method: (§1) For the in vivo efficacy experiments of this example, when tumors reached 80-200 mm^3, SCID mice were randomized into groups. Cpd. A, Cpd. No. 4, Cpd. No. 6, or vehicle control (10% PEG400: 3% Cremophor: 87% PBS, or 2% TPGS:98% PEG200) was given at the dose and duration indicated. Tumor sizes and animal weights were measured 2-3 times per week. Tumor volume (mm^3)=(length×width^2)/2. Tumor growth inhibition was calculated as TGI (%)=(Vc−Vt)/(Vc−Vo)*100, where Vc, Vt are the median of control and treated groups at the end of the study and Vo at the start. All the in vivo studies were performed under an animal protocol approved by the University Committee on Use and Care of Animals of the University of Michigan, in accordance with the recommendations in the Guide for the Care and Use of Laboratory Animals of the National Institutes of Health.
(§2) No. 4 was determined in xenograft tumor models of TNBC cell lines.

[4] = tested on: MDA-MB-231; assay: Cell growth inhibition (CellTiter-Glo), MDA-MB-231; assay type: cell-based, human; details: Homo sapiens, MDA-MB-231, 96 h, MDA-MB-231 cells, 4 days
Method: (§3) Cell growth inhibitory activity of representative BET bromodomain degraders was determined using CellTiter-Glo® Luminescent Cell Viability Assay. Cells were seeded in 384-well white opaque cell culture plates at a density of 2,000 cells/well with serially diluted compounds and incubated at 37° C. in an atmosphere of 95% air and 5% CO2 for 4 days. Cell viability was determined using the CellTiter-Glo® Luminescent Cell Viability Assay Kit (Promega, Madison, Wis.) according to the manufacture's instruction. Briefly, a volume of CellTiter-Glo® Reagent equal to the volume of cell culture medium was added to each well, and then the plates were incubated at room temperature for 10-20 minutes. The luminescent signal was measured using a Tecan Infinite M1000 multimode microplate reader (Tecan, Morrisville, N.C.). The half maximal inhibitory concentration (IC50) was calculated using the GraphPad Prism 5 software (GraphPad Software, La Jolla, Calif.).

[5] = tested on: MDA-MB-468 xenograft; assay: In vivo antitumor activity in MDA-MB-468 xenograft model; design: species or system SCID mice
Method: as §1, §2

[6] = tested on: MOLM-13; assay: Cell growth inhibition (CellTiter-Glo), MOLM-13; assay type: cell-based; details: Homo sapiens, MOLM-13, 96 h, MOLM-13 cells, 4 days
Method: as §3

Structure (SMILES): CN(C)CC#Cc1ccc(OCCCc2sc(N3CCc4cccc(C(=O)Nc5nc6ccccc6s5)c4C3)nc2C(=O)O)c(F)c1 [A-1155463]
effect on Cpd. No. 4-induced apoptosis [1]: potentiated
synergy with Cpd. No. 4 (excess growth inhibition over Bliss independence model) [2]: Modest to strong synergy

Structure (SMILES): CC1(C)CCC(c2ccc(Cl)cc2)=C(CN2CCN(c3ccc(C(=O)NS(=O)(=O)c4ccc(N[C@H](CCN5CCOCC5)CSc5ccccc5)c(S(=O)(=O)C(F)(F)F)c4)cc3)CC2)C1 [ABT-263]
effect on Cpd. No. 4-induced apoptosis [1]: potentiated
synergy with Cpd. No. 4 (excess growth inhibition over Bliss independence model) [2]: Modest to strong synergy

Structure (SMILES): Cc1c(S(C)(=O)=O)c(-c2cc(F)cc(N3CCN(c4ccc(NS(=O)(=O)c5ccc(N[C@H](CCN6CCC(O)CC6)CSc6ccccc6)c(S(=O)(=O)C(F)(F)F)c5)cc4)CC3)c2)c(-c2ccc(Cl)cc2)n1C(C)C [BM-1197]
apoptosis induction by the combination of Cpd. No. 4 and BM-1197 ([1]; BT-20 and MDA-MB-157 (data not shown)): synergistic apoptosis induction
effect on apoptosis induction by Cpd. No. 4 ([1]; MDA-MB-213 cells (FIG. 15)): enhances apoptosis induction by Cpd. No. 4
effect on apoptosis induction by Cpd. No. 4 ([1]; MDA-MB-453 cells (FIG. 16)): enhances apoptosis induction by Cpd. No. 4
effect on Cpd. No. 4-induced apoptosis [1]: potentiated
synergy with Cpd. No. 4 (excess growth inhibition over Bliss independence model) [2]: Modest to strong synergy

IC50 [4]: 1 nM
IC50 [6]: < 0.8 nM
Structure (SMILES): CCn1nc(C2CC2)cc1Nc1nc(C(=O)NCCCCCc2cccc3c2CN(C2CCC(=O)NC2=O)C3=O)nc2[nH]c3cc(-c4c(C)noc4C)c(OC)cc3c12 (centres unmarked) [Cpd. No. 6]
tumor growth ([3]; MDA-MB-231 xenograft model in mice (FIG. 10)): reduce tumor growth
antitumor activity relative to Cpd. A at 50 mg/kg, daily oral dosing, 5 days a week for 3 weeks ([3]; MDA-MB-231 xenograft model, 5 mg/kg, IV, 3 times per week for 3 weeks): comparable to or stronger than that of Cpd. A
antitumor activity ([3]; MDA-MB-231 xenograft model, 5 mg/kg, IV, 3 times per week for 3 weeks (FIG. 10)): exerted antitumor activity
tumor growth ([5]; MDA-MB-468 xenograft model in mice (FIG. 11)): reduce tumor growth
antitumor activity relative to Cpd. A at 50 mg/kg, daily oral dosing, 5 days a week for 3 weeks ([5]; MDA-MB-468 xenograft model, 5 mg/kg, IV, 3 times per week for 3 weeks): comparable to or stronger than that of Cpd. A
antitumor activity ([5]; MDA-MB-468 xenograft model, 5 mg/kg, IV, 3 times per week for 3 weeks (FIG. 11)): exerted antitumor activity
